Source: US20120058133A1, “INHIBITION OF TRNA SYNTHETASES AND THERAPEUTIC APPLICATIONS THEREOF” (President and Fellows of Harvard College, priority 2009, published 2012)
“Also recorded” adds a separate entry of the source.

Tests used:
[1] = system: GCN2 phosphorylation / AAR pathway; assay: AAR pathway activation in MEFs (GCN2, eIF2a phosphorylation, CHOP); format: cell-based, mouse
Method: FIG. 24. Activation of the AAR in cells by HF/FF occurs through inhibition of proline utilization. FIG. 24A is a gel showing HF-induction of the AAR pathway is reversed by proline. MEFs were treated with the indicated concentration of HF or FF in the presence or absence of 2 mM Proline for 2 hours (left) or treated with 1 μM borrelidin in the presence or absence of 2 mM Threonine for 2 hours (right). Cells were lysed and assessed by anti-pGCN2 or anti-GCN2 Western blot. Data are representative of three separate experiments.
FIG. 24B is a gel showing HF induction of eIF2a phosphorylation and CHOP expression is GCN2 dependent. Wild Type or GCN2−/− MEFs were treated with 50 nM HF in the presence or absence of 2 mM proline. Cells were lysed at 2 hours post-HF addition (peIF2a) or 6 hours post-HF addition (CHOP) and analyzed for phosphoprotein or total protein levels by Western blot.

[2] = system: mouse embryo fibroblasts (MEFs); assay: ECM gene expression and protein production in MEFs; format: cell-based
Method: FIG. 26C. Proline rescues both HF stimulated and HF inhibited gene expression. MEFs were treated with or without HF (50 nM) and/or Proline (2 mM) for 4 hours (CHOP, S100A4) or 24 hours (CoLIA1, ColIA2). DMSO was used as vehicle control. Changes in mRNA levels are expressed as fold-change relative to control and normalized to expression of TBP. Error bars reflect standard deviation of determinations from plates of cells treated in triplicate, confidence interval (p-value) for the effect of HF alone versus HF+Pro was determined using a two-tailed Student's t test. Data are representative of two separate experiments.
(§1) FIG. 26D. HF-inhibition of collagen production is rescued by proline and doesn't affect overall protein synthesis. Cells were pre-incubated with HF with or without proline for 4 hours, and ^35S-methionine and HF with or without proline was added. 24 hours later, conditioned medium and total cell lysate was harvested. New production of Type I procollagen was measured in conditioned medium by Western blot, and bands quantitated using Image J quantitation software. The original blot is shown in FIG. 27; total protein synthesis was measured as TCA-precipitable ^35S in a scintillation counter. Error bars reflect standard deviation of triplicate determinations.
FIG. 33. Proline rescues HF-suppression of ECM protein production. MEFs were incubated for 4 hours in HF with or without 2 mM Pro, to measure new collagen production in conditioned medium (cells were washed into fresh DMEM/0.2% FBS with fresh HF and proline re-added, and either conditioned medium (for Type I procollagen) or total cell lysate (for fibronectin, […]) harvested twenty four hours later. Protein levels were assayed by Western blot.
Q-PCR was performed using the Roche LightCycle UPR system, using the following primers and probes: […]

[3] = system: MEFs; assay: Total protein synthesis and metabolic activity (Alamar blue) of fibroblasts; format: cell-based, mouse
Method: as §1
FIG. 29. HF effect on cellular metabolic activity. MEFs were incubated at indicated dose of HF with or without 2 mM proline for 24 hours and tested for metabolic activity using an Alamar blue assay (Invitrogen).

[4] = system: adjuvant-driven EAE in wild-type B6 mice; assay: Adjuvant-driven EAE (MOG33-55 immunization); format: in vivo, mouse
From the text: (§2) The ability of systemic HF treatment to block IL-17 expression and associated autoimmune inflammation in vivo was examined using two distinct models of experimental autoimmune encephalomyelitis (EAE). […] The second model, a passive model of EAE induction, is initiated by the transfer of myelin proteolipid protein (PLP)-reactive T cells into lymphopenic hosts.
Adjuvant-driven EAE was induced in 8 week-old wild-type B6 mice purchased from Charles River laboratories (Kingston, N.Y.) by subcutaneous injection of […] peptide emulsified in Incomplete Freund's Adjuvant (IFA) plus 5 mg/ml heat-killed M. tuburculosis (BD Biosciences) in both dorsal flanks as described in Veldhoen et al. (Nat. Immunol. 7(11):1151-1156, 2006).
(§3) Mice were injected daily with HF (2 μg/mouse) or vehicle control (DMSO) i.p. Clinical signs of EAE were assessed according to the following score: 0, no signs of disease; 1, flaccid tail; 2, weak gait/hind limb paresis; 3, hind limb paralysis; 4, tetraplegia; 5, moribund. Cytokine production during EAE was determined either in peripheral T cells isolated from spleen or lymph nodes of mice prior to disease onset (day 6-10) or in mononuclear cells isolated from the brain and spinal cords of mice with severe disease (clinical score ≧2) between days 15-20. Briefly, splenocytes were stained for intracellular cytokines following erythrocyte lysis with ammonium chloride buffer. T cells were isolated from brain and spinal cords of mice with active EAE following perfusion with cold PBS. Minced CNS tissue was digested with liberase C1 (0.33 mg/ml, Roche Diagnostics) or collagenase D (10 mg/ml, Roche Diagnostics) at 37° C. for 30-45 minutes. Cell suspensions were passed through 70 μm cell strainers (VWR) and fractionated by 70%/30% Percoll gradient centrifugation. Mononuclear cells were collected from the interphase, washed and used for intracellular cytokine analysis.

[5] = system: passive EAE in RAG2-deficient mice; assay: Passive EAE (transfer of PLP-reactive T cells); format: in vivo, mouse; conditions: 2 μg HF daily i.p.
From the text: as §2
Passive EAE was induced by intravenous transfer of purified CD3^+ splenic T cells isolated from PLP TCR transgenic B10.S mice into syngeneic RAG2-deficient mice (3×10^6 cells/mouse) (Waldner et al., J. Clin. Invest. 113(7):990-997, 2004).
as §3, with “Minced CNS tissue was digested with liberase C1 (0.33 mg/ml, Roche Diagnostics) or collagenase D (10 mg/ml, Roche Diagnostics) at 37° C. for 30-45 minutes. Cell suspensions were passed through 70 μm cell strainers (VWR) and fractionated by 70%/30% Percoll gradient centrifugation. Mononuclear cells were collected from the interphase, washed and used for intracellular cytokine analysis.” left out

[6] = system: amino acid starvation response in splenocytes; assay: In vivo AAR activation in splenocytes of HF-injected mice; design: species or system mouse; conditions: i.p. injection, 6 hours
Method: FIG. 20F, left panel, depicts western blot analysis of protein from cells of wild-type mice injected i.p. with vehicle (DMSO) or […] HF. Spleens were harvested 6 hours post injection, red blood cells were removed by NH4Cl lysis buffer and immunoblotting for phosphorylated or total eIF2a was performed on whole cell extracts. FIG. 20F, right panel is a graph depicting levels of AAR-associated gene expression (Asns, Gpt2, eIF4Ebp1) analyzed by quantitative real-time PCR using cDNA from splenocytes of mice treated with DMSO or HF as above. Expression of AAR-associated transcripts were normalized to Hprt levels and data are presented as mean relative expression from duplicate samples ±SD. All data represent 2-3 similar experiments.

[7] = system: TGFβ signaling; conditions: literature reports; cited from earlier work
[8] = 2 μg HF daily, ˜0.1 mg/kg, i.p.

O=C(CC1NCCCC1O)Cn1cnc2cc(Br)c(Cl)cc2c1=O (racemic) [HF, halofuginone]
eIF2-alpha phosphorylation and CHOP induction in wild type vs GCN2−/− fibroblasts ([1]; 50 nM HF): absent in GCN2−/− fibroblasts | reversal of GCN2 phosphorylation by cognate amino acid ([1]; 2 mM proline or 2 mM threonine): abrogated by the addition of 2 mM proline | GCN2 phosphorylation in fibroblasts ([1]; 2 hours, borrelidin 1 μM): Stimulation of GCN2 phosphorylation | mRNA levels of ColIA1, ColIA2, and S100A4 ([2]; 50 nM HF, 4 or 24 hours): inhibited mRNA levels | CHOP mRNA expression ([2]; 50 nM HF, 4 hours): stimulated | reversal of HF effects on ECM genes and proteins by proline ([2]; 2 mM proline): reversed by the addition of 2 mM proline | production of fibronectin ([2]; 24 hours): dramatically inhibited | production of secreted Type I procollagen protein ([2]; 24 hours): dramatically inhibited | total metabolic activity of fibroblasts [3]: unaffected | 35S-methionine incorporation into total protein ([3]; doses inhibiting ECM proteins, 24 hours): did not significantly change | CD4+ T cell infiltrates into the CNS ([4]; 2 μg HF daily i.p.): overall reduction | IFNγ expression in the same T cell populations ([4]; 2 μg HF daily i.p.): did not affect IFNγ expression; also recorded: had no effect on the number of IFNγ T-cells | T cell-derived IL-17 expression in lymph nodes and CNS tissue ([4]; 2 μg HF daily i.p.): reduction; also recorded: selectively reduced the number of IL-17 expressing T cells | frequency of disease onset [4, 8]: significantly reduced | severity of adjuvant-driven EAE disease [4, 8]: significantly reduced | clinical score of mice analysed ([4]; 17 days after immunization with MOG): 0 | clinical score of mice analysed ([4]; day 18): 0 | disease in passive EAE model [5]: kinetics and severity similar to control treated animals; also recorded: had no effect on an independent, passive model of EAE | eIF2α phosphorylation and AAR-associated transcripts in splenocytes ex vivo [6]: increased eIF2α phosphorylation and expression of AAR-associated transcripts | concentration at which HF can attenuate TGFβ signaling [7]: > 50 nM
